Data published in paper PMC6695681, “Hydrophobic Interactions Drive Binding between Vascular Endothelial Growth Factor-A (VEGFA) and Polyphenolic Inhibitors” (Molecules, 2019).
Several values for one entry are separate records, joined by “and”; a condition that tells them apart may be missing. Identical values can stand only once. Like-named read-outs stand apart in the source and are kept apart here. One block for each compound: values may come before it.

What was measured:
VEGF-165 [1] = target: T1, VEGF-165 (Homo sapiens, UniProt P15692); test: Surface plasmon resonance binding of polyphenols to immobilised VEGF165; details: for dissociation rate at 20 °C compared with 37 °C: 20 °C vs 37 °C, Figure 3B; for koff: read-out: dissociation rate constant kd;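 for all read-outs here: running buffer PBST with 1% DMSO, sensorgrams double referenced against a VEGF-free reference cell and blank injections, kinetics fitted to a 1:1 Langmuir binding model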
T1 construct: purchased ReliaTech GmbH (Wolfenbüttel, Germany)
T1 sequence (P15692 27-191 isoform P15692-4 limits assumed): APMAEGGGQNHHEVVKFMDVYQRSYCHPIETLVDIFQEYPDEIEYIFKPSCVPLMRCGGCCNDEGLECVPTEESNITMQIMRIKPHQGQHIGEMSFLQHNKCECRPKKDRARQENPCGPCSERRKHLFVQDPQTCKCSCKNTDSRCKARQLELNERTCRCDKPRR

[2] = system: VEGF-dependent VEGFR2 activation in HUVEC cells; parameters: method as in Cerezo et al. [1]; details: ref Cerezo et al. [1], read-out: IC50 (concentration causing 50% inhibition of VEGF activation in HUVEC cells), cited from earlier work
VEGF-165 [3] = target: T1, VEGF-165; test: Far-UV circular dichroism of VEGF secondary structure upon binding EGCG
Protocol: Circular dichroism (CD) in the far UV range (180–260 nm) was used to determine whether the secondary structure of VEGF changed upon binding EGCG. Circular dichroism spectra were measured for a fixed concentration of VEGF-165 (0.22 nmoles in 50 µL) with increasing amounts of EGCG (0, 1.36, 5.45 and 10.91 nmoles) and the spectra obtained are shown in Figure 4. Analysis of the spectra indicated the predominant features in the secondary structure of VEGF165 were random coil (unordered) and β-sheet, followed by smaller percentages of α-helix and turns. After adding EGCG at a mole ratio of 1:50 VEGF:EGCG, the VEGF secondary structure was altered with increases of 65% and 33% in α-helix and turns respectively, a reduction in the percentage of β-strands of 88%, and only a 3% reduction in the predominant unordered structure.
Circular Dichroism (CD) spectra were recorded using a Jasco J-715 spectropolarimeter (Easton, MD, USA) over a wavelength range of 185–260 nm in PBS solvent with 1% ethanol, using a quartz demountable CD cell with a path length of 0.1 mm. Averages of three runs of the protein spectra were collected a 37 °C at a scan speed of 20 nm/min and a band width of 1.0 nm. To account for any background effect the protein in buffer alone, the EGCG molecule in buffer alone, and the buffer alone were also measured. After background correction the spectra were converted to units of delta epsilon. Dichroweb analysis server http://dichroweb.cryst.bbk.ac.uk was used to analyse and estimate on line the secondary structure contents.

VEGF = target: T2, VEGF (Homo sapiens, UniProt P15692); test: SDS-page gels of VEGF treated with polyphenol, reducing and non-reducing conditions
T2 construct: purchased ReliaTech GmbH (Wolfenbüttel, Germany)
T2 sequence (P15692 27-191 isoform P15692-4 limits assumed): T1 sequence (P15692 27-191 isoform P15692-4 limits assumed)
Excerpt: Binding occurs when intermolecular forces are established between VEGF and the phenolic ligand. […] Therefore, the interactions between VEGF and inhibitor polyphenols are likely to be non-covalent in nature. These forces could be the result of various interactions between the protein, the ligand, and the environment and are likely to be predominantly based on electrostatic (H bonding) and hydrophobic forces.
Figure 2 SDS-page gels of control (VEGF) and treatments (VEGF and apple procyanidin fraction dp4 or EGCG under (A) reducing conditions and (B) Non-reducing conditions.

[4] = PBST, 37 °C, read-out: association rate constant ka
[5] = PBST, 37 °C, read-out: equilibrium constant KD
[6] = PBST, 37 °C (control runs of Table 2)

dissociation rate at 20 °C compared with 37 °C (VEGF-165 [1]): higher at 20 °C than at 37 °C | kon (VEGF-165 [1]; [4]): 2910 M⁻¹ s⁻¹ | koff (VEGF-165 [1]; PBST, 37 °C): 0.00093 s⁻¹ | Kd (VEGF-165 [1]; [5]): 351 nM
SMILES: Oc1cc(O)c2c(c1)OC(c1ccc(O)c(O)c1)C(O)C2c1c(O)cc(O)c2c1OC(c1ccc(O)c(O)c1)C(O)C2c1c(O)cc(O)c2c1OC(c1ccc(O)c(O)c1)C(O)C2 (stereo not shown) [Procyanidin Dp3]
IC50 [2]: 780 nM

dissociation rate at 20 °C compared with 37 °C (VEGF-165 [1]): higher at 20 °C than at 37 °C | Kd (VEGF-165 [1]; [5]): 341 nM
SMILES: Oc1cc(O)c2c(c1)OC(c1ccc(O)c(O)c1)C(O)C2c1c(O)cc(O)c2c1OC(c1ccc(O)c(O)c1)C(O)C2c1c(O)cc(O)c2c1OC(c1ccc(O)c(O)c1)C(O)C2c1c(O)cc(O)c2c1OC(c1ccc(O)c(O)c1)C(O)C2c1c(O)cc(O)c2c1OC(c1ccc(O)c(O)c1)C(O)C2c1c(O)cc(O)c2c1OC(c1ccc(O)c(O)c1)C(O)C2c1c(O)cc(O)c2c1OC(c1ccc(O)c(O)c1)C(O)C2c1c(O)cc(O)c2c1OC(c1ccc(O)c(O)c1)C(O)C2c1c(O)cc(O)c2c1OC(c1ccc(O)c(O)c1)C(O)C2 (stereo not shown) [Procyanidin Dp9]

SMILES: O=c1c(O)c(-c2ccc(O)c(O)c2)oc2cc(O)c(O)c(O)c12 [Quercetagetin]
kon (VEGF-165 [1]; [4]): 858 M⁻¹ s⁻¹ | koff (VEGF-165 [1]; PBST, 37 °C): 0.000826 s⁻¹ | Kd (VEGF-165 [1]; [5]): 934 nM | IC50 [2]: 100 nM

kon (VEGF-165 [1]; [4]): 323 M⁻¹ s⁻¹ | koff (VEGF-165 [1]; PBST, 37 °C): 0.000696 s⁻¹ | Kd (VEGF-165 [1]; [5]): 2710 nM
SMILES: Oc1cc(O)c2c(c1)O[C@H](c1ccc(O)c(O)c1)[C@H](O)C2 [(-) Epicatechin]

kon (VEGF-165 [1]; [4]): 548 M⁻¹ s⁻¹ | koff (VEGF-165 [1]; PBST, 37 °C): 0.001 s⁻¹ | Kd (VEGF-165 [1]; [5]): 637 nM
SMILES: Oc1cc(O)c2c(c1)OC(c1ccc(O)c(O)c1)C(O)C2c1c(O)cc(O)c2c1OC(c1ccc(O)c(O)c1)C(O)C2 (stereo not shown) [Procyanidin Dp2]
IC50 [2]: 52600 nM

SMILES: O=C(O[C@@H]1Cc2c(O)cc(O)cc2O[C@@H]1c1cc(O)c(O)c(O)c1)c1cc(O)c(O)c(O)c1 [Epigallocatechin gallate (EGCG), Epigallocatechin gallate]
position of the negative band in CD far UV spectra (VEGF-165 [3]; EGCG mixed with VEGF, 201 nm for VEGF alone): 211 nm | time taken by conformational changes in VEGF (VEGF-165 [3]; after mixing with EGCG): less than 90 s | increase in turns of VEGF secondary structure (VEGF-165 [3]; mole ratio 1:50 VEGF:EGCG): 33% | increase in α-helix of VEGF secondary structure (VEGF-165 [3]; mole ratio 1:50 VEGF:EGCG): 65% | reduction in the percentage of β-strands of VEGF (VEGF-165 [3]; mole ratio 1:50 VEGF:EGCG): 88% | reduction in the predominant unordered structure of VEGF (VEGF-165 [3]; mole ratio 1:50 VEGF:EGCG): 3% | dissociation rate at 20 °C compared with 37 °C (VEGF-165 [1]): higher at 20 °C than at 37 °C | kd (VEGF-165 [1]; PBST + 0.5 M NaCl, 37 °C): 0.00037 ± 4e-05 s⁻¹ | Kd (VEGF-165 [1]; PBST + 0.5 M NaCl, 37 °C, read-out: KD): 60 nM | kon (VEGF-165 [1]; PBST + 0.5 M NaCl, 37 °C, read-out: ka): 5180 ± 92 M⁻¹ s⁻¹ | kd (VEGF-165 [1]; PBST + 1 M NaCl, 37 °C): 0.00033 ± 4e-05 s⁻¹ | Kd (VEGF-165 [1]; PBST + 1 M NaCl, 37 °C, read-out: KD): 35 nM | kon (VEGF-165 [1]; PBST + 1 M NaCl, 37 °C, read-out: ka): 6500 ± 260 M⁻¹ s⁻¹ | kd (VEGF-165 [1]; PBST + 1 M urea, 37 °C): 0.00036 ± 2.1e-05 s⁻¹ | Kd (VEGF-165 [1]; PBST + 1 M urea, 37 °C, read-out: KD): 71 nM | kon (VEGF-165 [1]; PBST + 1 M urea, 37 °C, read-out: ka): 5160 ± 100 M⁻¹ s⁻¹ | kd (VEGF-165 [1]; PBST + 10% ethanol, 37 °C): 0.0017 ± 7e-05 s⁻¹ | Kd (VEGF-165 [1]; PBST + 10% ethanol, 37 °C, read-out: KD): 810 nM | kon (VEGF-165 [1]; PBST + 10% ethanol, 37 °C, read-out: ka): 2460 ± 60 M⁻¹ s⁻¹ | kd (VEGF-165 [1]; PBST + 10 M ethylene glycol, 37 °C): 0.00026 ± 5.2e-05 s⁻¹ | Kd (VEGF-165 [1]; PBST + 10 M ethylene glycol, 37 °C, read-out: KD): 420 nM | kon (VEGF-165 [1]; PBST + 10 M ethylene glycol, 37 °C, read-out: ka): 796 ± 45 M⁻¹ s⁻¹ | kd (VEGF-165 [1]; PBST + 30% ethanol, 37 °C): 0.0002 ± 5e-05 s⁻¹ | Kd (VEGF-165 [1]; PBST + 30% ethanol, 37 °C, read-out: KD): 470 nM | kon (VEGF-165 [1]; PBST + 30% ethanol, 37 °C, read-out: ka): 482 ± 21 M⁻¹ s⁻¹ | ka (VEGF-165 [1]; [6]): 5184 ± 64 M⁻¹ s⁻¹ and 6052 ± 64 M⁻¹ s⁻¹ | kd (VEGF-165 [1]; [6]): 0.00068 ± 2.9e-06 s⁻¹ and 0.00088 ± 5.2e-05 s⁻¹ and 0.00072 ± 5e-05 s⁻¹ | Kd (VEGF-165 [1]; PBST, 37 °C (control runs of Table 2), read-out: KD): 110 nM and 170 nM and 140 nM | kon (VEGF-165 [1]; PBST, 37 °C (control runs of Table 2), read-out: ka): 6147 ± 52 M⁻¹ s⁻¹ | kon (VEGF-165 [1]; [4]): 6300 M⁻¹ s⁻¹ | koff (VEGF-165 [1]; PBST, 37 °C): 0.000625 s⁻¹ | Kd (VEGF-165 [1]; [5]): 112 nM | IC50 ([2]; listed as EGCG): 88 nM | IC50 [2]: 90 nM | change in migration of treated VEGF on SDS page gels (VEGF): no change in migration

kon (VEGF-165 [1]; [4]): 8240 M⁻¹ s⁻¹ | koff (VEGF-165 [1]; PBST, 37 °C): 0.000633 s⁻¹ | Kd (VEGF-165 [1]; [5]): 35 nM and 34.8 nM
SMILES: O=C(O[C@@H]1Cc2c(O)cc(O)cc2O[C@@H]1c1ccc(O)c(O)c1)c1cc(O)c(O)c(O)c1 [Epicatechin gallate (ECG), Epicatechin gallate]
IC50 [2]: 160 nM

kon (VEGF-165 [1]; [4]): 131 M⁻¹ s⁻¹ | koff (VEGF-165 [1]; PBST, 37 °C): 0.00399 s⁻¹ | Kd (VEGF-165 [1]; [5]): 25000 nM and 24600 nM
SMILES: Oc1cc(O)c2c(c1)O[C@H](c1ccc(O)c(O)c1)[C@@H](O)C2 [(+) Catechin]
IC50 [2]: 215000 nM

SMILES: O=C(O)c1cc(O)c(O)c(O)c1 [Gallic acid]
kon (VEGF-165 [1]; [4]): 166 M⁻¹ s⁻¹ | koff (VEGF-165 [1]; PBST, 37 °C): 0.000391 s⁻¹ | Kd (VEGF-165 [1]; [5]): 5520 nM

SMILES: O=c1c(O)c(-c2cc(O)c(O)c(O)c2)oc2cc(O)cc(O)c12 [Myricetin]
Kd (VEGF-165 [1]; [5]): 4460 nM | IC50 ([2]; listed as myricetin): 121 nM | IC50 [2]: 120 nM
